In US4931435A, “Agent with an antidepressant activity” (Boehringer Ingelheim KG, priority 1987, dated 1990):

What was measured:
isolated chicks = assay: chick call test: distress call activation in isolated one day old chicks (antidepressant activity); assay type: in vivo; conditions: Placebo = 100%
Text: The call frequency of isolated one day old chicks, which decreases in the course of the test, is used as an experimental behavioral model of manifestations of resignation in depression, The method has been validated by tests on numerous neurotropically active substances; it is distinguished by its highly reproducible selectivity for antidepressants which are capable of reactivating the decreased call rate as a function of dosage. [distress call activation in isolated chicks; A new behavioral model for antidepressants, E. Lehr, Psychopharmacol. 89. […] Neurol. Psychiat.

[1] = tested on: ptosis induced by tetrabenazine; assay: Inhibition of ptosis induced by tetrabenazine in the mouse; assay type: in vivo; conditions: Control without tetrabenazine = 100%
[2] = tested on: Albino mice of the Chbb: NMRI strain; conditions: group 1 (m and f), i.v., mouse, dosage 100
Text: Albino mice of the Chbb: NMRI strain
A 2% solution of 1-benzyl-4-aminomethyl-pyrrolidin-2-one fumarate and a 0.25% imipramin solution (pH=6.2) were used.

mice = conditions: mouse, in vivo
Experimental: The test substances were dissolved in 0.9% NaCl solution.
**The animals in Group 2 were treated first with
1benzyl-4-aminomethyl-pyrrolidin-2-one FU and immediately afterwards
(about 10 to 15 seconds later) with imipramin.

| SMILES | Increase in call rate in the second hour (isolated chicks; 10 mg/kg i.p.) [%] | Inhibition of ptosis induced by tetrabenazine ([1]; 3 mg/kg p.o.) [%] | Increase in call rate in the second hour (isolated chicks; 5 mg/kg i.p.) [%] | Lethality dead/treated animals [2] | Inhibition of ptosis induced by tetrabenazine ([1]; 3.5 mg/kg p.o.) [%] | effect of pretreatment on the toxic effect of imipramin (mice) |
| --- | --- | --- | --- | --- | --- | --- |
| CN(C)CCCN1c2ccccc2CCc2ccccc21 [Compound A, 10,11-dihydro-N,N-dimethyl-5H-dibenz[b,f]-azepin-5-propanamine, reference compound] | 131 | 12 | – | – | – | – |
| NCC1CC(=O)N(Cc2ccccc2)C1 (stereo not drawn) [Compound B, 1-benzyl-4-aminomethyl-pyrrolidin-2-one] | – | – | 284 | 0/10 | 48 | toxic effect of imipramin is reduced |
